Where “and” joins values, the source holds several entries; their conditions need not be identical. Equal entries are not always repeated. Where two headings read alike, the source gives them in different places.

Data set [1] relates to Herpes Simplex Virus Type 2 (HSV-2). Nature of the data set: Antiviral activity of tranexamic acid/L-arginine against HSV-2. Particulars: contact time 48 ± 8 hours. The data set is classed as cell-based.
The test system of data set [2] is Herpes Simplex Virus Type 1 (HSV-1). Nature of the data set: Antiviral activity of tranexamic acid/L-arginine against HSV-1. The class given is cell-based. To be noted: for Viral Promotion (%) / Output Viral Titer (Log10TCID50) / Titer (Log10TCID50/mL) / Viral Reduction (%): contact time 48 ± 8 hours; for Log10 Titer Difference: vs input virus control average 6.39.

Data set [3] shares this test system. The class given is cell-based. Here is the method: (§1) Contact time for each sample was 48±2 hours and Log10 titer reductions were generated using the input viral titer (Log10TCID50) and the output viral titer (Log10TCID50).
The plate was incubated for 48±2 hours at 36±2° C. with 5±3% CO2. The plate was then frozen at −60 to −90° C., thawed, and the contents of each well centrifuged at 2,000 RPM for 10 minutes. The supernatant from each well was collected and assayed for infectious virus.
as §1

The test system is the same in data set [4]. Particulars: contact time 48 ± 8 hours.
Data set [5] has as its system recurrent outbreaks of cold sores. Nature of the data set: Topical treatment and prophylactic use in human subjects with recurrent cold sores. The data set is classed as in vivo.
Data set [6] deals with cell medium used for HSV-1 and HSV-2. Nature of the data set: Cytotoxicity limit in the cell medium used for HSV-1 and HSV-2.
Data set [7] relates to Herpes Simplex Virus Type 2 (HSV-2). To be noted: contact time 48 ± 8 hours.
Setting [8] is: 5,000 μM L-arginine alone, listed as L-arginine.
Where [9] appears, read: 10,000 μM L-arginine alone, listed as L-arginine.
Setting [10] is: 2% (w/v) tranexamic acid alone, listed as tranexamic acid.
Where [11] appears, read: tranexamic acid 0.5% (w/v), high virus inocula.
Setting [12] is: tranexamic acid 0.5% (w/v), low virus inocula.
Setting [13] is: tranexamic acid 0.5% (w/v), low virus inocula, listed as tranexamic acid.
[14] abbreviates: tranexamic acid 1.0% (w/v), high virus inocula.
The mark [15] stands for this setting: tranexamic acid 1.0% (w/v), high virus inocula, listed as tranexamic acid.
[16] abbreviates: tranexamic acid 1.0% (w/v), low virus inocula.
Setting [17] is: tranexamic acid 1.0% (w/v), low virus inocula, listed as tranexamic acid.
Where [18] appears, read: tranexamic acid 2.0% (w/v), high virus inocula.

As for `N=C(N)NCCC[C@H](N)C(=O)O` [L-Arginine, L-arginine], the “Viral Promotion (%)” value in data set [1] (5,000 μM L-arginine alone) is 44% and 76%; in data set [1] (setting [8]), 76%; in data set [1] (setting [9]) it was 76%; in data set [1] (25,000 μM L-arginine alone), 3%; in data set [2] (setting [8]) it was 54%; in data set [2] (10,000 μM L-arginine alone), 85% and 80% and 83%. For the same molecule, the “Viral Promotion (%)” value in data set [2] (setting [9]) is 85%; in data set [2] (25,000 μM L-arginine alone), 85% and 74% and 65%; in data set [2] (25,000 μM L-arginine alone, listed as L-arginine), 85%. Further, the entries for the “Viral Reduction (%)” value in data set [1] (5,000 μM L-arginine alone) and in data set [1] (25,000 μM L-arginine alone) were 32% and 66%, respectively. For the same molecule, in data set [2] (10,000 μM L-arginine alone), the “Output Viral Titer (Log10TCID50)” value was 7.21 Log10TCID50 and 7.09 Log10TCID50 and 7.15 Log10TCID50. The “Titer (Log10TCID50/mL)” value in data set [2] (10,000 μM L-arginine alone) was 7.21 ± 0.06 Log10TCID50/mL and 7.09 ± 0.09 Log10TCID50/mL and 7.15 ± 0.08 Log10TCID50/mL. Further, the “Log10 Titer Difference” value in data set [2] (10,000 μM L-arginine alone) was 0.82 Log10 and 0.70 Log10 and 0.76 Log10. Moreover, the “Log10 titer reduction (peak of replicates)” value in data set [3] (0.5 mM L-arginine alone, vs input virus control average) was 0.28 Log10; in data set [3] (2 mM L-arginine alone, vs input virus control average), 0.04 Log10. Further, the Log10 Titer Reduction result in data set [3] (5 mM L-arginine alone, vs input virus control average) was “no Log10 titer reduction”; in data set [3] (5 mM L-arginine, HSV-1, contact time 48 ± 2 hours, input viral titer 8.50, 3 replicates), “No reduction”.

Regarding `N[C@@H](Cc1c[nH]cn1)C(=O)O` [L-Histidine, L-histidine], the “Titer (Log10TCID50/mL)” value in data set [3] (0.5 mM L-histidine alone, contact time 48 ± 2 hours) is 8.46 ± 0.09 Log10TCID50/mL and 8.76 ± 0.06 Log10TCID50/mL and 8.76 ± 0.10 Log10TCID50/mL; in data set [3] (1 mM L-histidine alone, contact time 48 ± 2 hours), 8.70 ± 0.11 Log10TCID50/mL and 8.40 ± 0.11 Log10TCID50/mL; in data set [3] (5 mM L-histidine alone, contact time 48 ± 2 hours), 8.52 ± 0.10 Log10TCID50/mL and 8.82 ± 0.08 Log10TCID50/mL and 8.64 ± 0.06 Log10TCID50/mL; in data set [3] (10 mM L-histidine alone, contact time 48 ± 2 hours), 8.70 ± 0.00 Log10TCID50/mL and 8.64 ± 0.06 Log10TCID50/mL; in data set [3] (25 mM L-histidine alone, contact time 48 ± 2 hours) it was 8.64 ± 0.10 Log10TCID50/mL and 8.52 ± 0.12 Log10TCID50/mL and 8.70 ± 0.00 Log10TCID50/mL. In addition, the “Log10 titer reduction (peak of replicates)” value in data set [3] (0.5 mM L-histidine alone, vs input virus control average) was 0.04 Log10; in data set [3] (1 mM L-histidine alone, vs input virus control average), 0.10 Log10. Besides, the “Output Viral Titer (Log10TCID50)” value is 8.46 Log10TCID50 and 8.76 Log10TCID50 (2×) in data set [3] (0.5 mM L-histidine, HSV-1, contact time 48 ± 2 hours, 3 replicates); 8.76 Log10TCID50 and 8.70 Log10TCID50 and 8.40 Log10TCID50 in data set [3] (1 mM L-histidine, HSV-1, contact time 48 ± 2 hours, 3 replicates); 8.52 Log10TCID50 and 8.82 Log10TCID50 and 8.64 Log10TCID50 in data set [3] (5 mM L-histidine, HSV-1, contact time 48 ± 2 hours, 3 replicates); 8.70 Log10TCID50 and 8.64 Log10TCID50 (2×) in data set [3] (10 mM L-histidine, HSV-1, contact time 48 ± 2 hours, 3 replicates). For the same molecule, the Log10 Titer Reduction result is “no Log10 titer reduction” in data set [3] (5 mM L-histidine alone, vs input virus control average); “No reduction” in data set [3] (5 mM L-histidine, HSV-1, contact time 48 ± 2 hours, input viral titer 8.50, 3 replicates); “no Log10 titer reduction” in data set [3] (10 mM L-histidine alone, vs input virus control average); “No reduction” in data set [3] (10 mM L-histidine, HSV-1, contact time 48 ± 2 hours, input viral titer 8.50, 3 replicates).

As for `NC[C@H]1CC[C@H](C(=O)O)CC1` [Tranexamic Acid (TA)], the “Output Viral Titer (Log10TCID50)” value in data set [3] (2% (w/v) tranexamic acid, HSV-1, contact time 48 ± 2 hours, 3 replicates) was 7.15 Log10TCID50 and 7.21 Log10TCID50 and 7.27 Log10TCID50. Besides, in data set [3] (2% (w/v) tranexamic acid, HSV-1, contact time 48 ± 2 hours, input viral titer 8.50, 3 replicates), the “Log10 Titer Reduction” value is 1.35 Log10 and 1.29 Log10 and 1.23 Log10.

On to `NC[C@H]1CC[C@H](C(=O)O)CC1` [Tranexamic Acid, tranexamic acid], for which the “Viral Reduction (%)” value in data set [1] (2% (w/v) tranexamic acid alone) is 99.6% and 99.7% and 99.3%; in data set [1] (setting [10]) it was 99.7%; in data set [2] (2% (w/v) tranexamic acid alone) it was 93% and 92% and 95%; in data set [2] (setting [10]), 95%. The “Output Viral Titer (Log10TCID50)” value in data set [2] (2% (w/v) tranexamic acid alone) is 5.30 Log10TCID50 and 5.12 Log10TCID50; in data set [4] (setting [11]), 6.19 Log10TCID50 and 6.43 Log10TCID50 and 6.37 Log10TCID50; in data set [4] (setting [12]), 5.24 Log10TCID50 and 5.54 Log10TCID50; in data set [4] (setting [14]), 6.43 Log10TCID50 and 6.61 Log10TCID50; in data set [4] (setting [16]), 4.34 Log10TCID50; in data set [4] (setting [18]), 5.71 Log10TCID50 and 5.42 Log10TCID50. In addition, the “Output Viral Titer (Log10TCID50)” value was 5.77 Log10TCID50 and 5.71 Log10TCID50 in data set [7] (setting [12]); 7.62 Log10TCID50 and 7.44 Log10TCID50 and 7.38 Log10TCID50 in data set [7] (setting [14]); 5.60 Log10TCID50 and 5.83 Log10TCID50 and 5.89 Log10TCID50 in data set [7] (setting [16]). The “Titer (Log10TCID50/mL)” value is 5.24 ± 0.08 Log10TCID50/mL and 5.30 ± 0.10 Log10TCID50/mL and 5.12 ± 0.10 Log10TCID50/mL in data set [2] (2% (w/v) tranexamic acid alone); 7.15 ± 0.08 Log10TCID50/mL and 7.21 ± 0.06 Log10TCID50/mL and 7.27 ± 0.00 Log10TCID50/mL in data set [3]; 6.19 ± 0.08 Log10TCID50/mL and 6.43 ± 0.13 Log10TCID50/mL and 6.37 ± 0.11 Log10TCID50/mL in data set [4] (setting [11]); 6.43 ± 0.12 Log10TCID50/mL and 6.61 ± 0.11 Log10TCID50/mL and 6.43 ± 0.13 Log10TCID50/mL in data set [4] (setting [14]); 5.71 ± 0.12 Log10TCID50/mL and 5.42 ± 0.06 Log10TCID50/mL in data set [4] (setting [18]); 5.54 ± 0.09 Log10TCID50/mL and 5.77 ± 0.10 Log10TCID50/mL and 5.71 ± 0.08 Log10TCID50/mL in data set [7] (setting [12]). The “Titer (Log10TCID50/mL)” value in data set [7] (setting [14]) is 7.62 ± 0.08 Log10TCID50/mL and 7.44 ± 0.11 Log10TCID50/mL and 7.38 ± 0.10 Log10TCID50/mL; in data set [7] (setting [16]), 5.89 ± 0.10 Log10TCID50/mL and 5.60 ± 0.09 Log10TCID50/mL and 5.83 ± 0.08 Log10TCID50/mL. Also, the “Log10 Titer Difference” value in data set [2] (2% (w/v) tranexamic acid alone) was −1.15 Log10 and −1.09 Log10 and −1.27 Log10. The “Log10 titer reduction (peak of replicates)” value in data set [3] (2% (w/v) tranexamic acid alone, vs input virus control average) is 1.29 Log10. Moreover, the “Reduction (%)” value in data set [4] (setting [11]) is 45.9%; in data set [4] (setting [12]), 62.9% and 90.5% and 81.0%; in data set [4] (setting [13]), 90.5%; in data set [4] (setting [15]), 5.9%; in data set [4] (setting [16]) it was 97.9% and 98.8% and 75.5%; in data set [4] (setting [17]) it was 98.8%. Further, the “Reduction (%)” value in data set [4] (setting [18]) is 82.1% and 90.8%; in data set [4] (tranexamic acid 2.0% (w/v), high virus inocula, listed as tranexamic acid), 90.8%; in data set [7] (setting [11]), 52.85%; in data set [7] (setting [12]), 78.94% and 64.24% and 68.85%; in data set [7] (setting [13]), 78.94%; in data set [7] (setting [14]), 37.85% and 58.94% and 64.24%. The “Reduction (%)” value is 64.24% in data set [7] (setting [15]); 75.82% and 58.94% and 52.85% in data set [7] (setting [16]); 75.82% in data set [7] (setting [17]); 99.98% and 99.85% in data set [7] (setting [18]). For the same molecule, the “outcome of cold sore outbreak” value in data set [5] (fourth subject, 10% (w/v) tranexamic acid topically a single time at onset) was “the following morning the blister was gone and the outbreak had ceased”. Besides, the “cold sore outbreaks during the year” value in data set [5] (one subject, 3 or 10% (w/v) tranexamic acid applied to face daily for approximately one year, usual experience 3 to 5 outbreaks) was “one”. Besides, the “time until cold sore had healed to only a small red spot” value in data set [5] (person, approximately 0.25 mL aqueous solution of 5% (w/v) tranexamic acid by swab, 5 times over 36 hours) is not above 36 h. For the same molecule, the “time until symptoms of the outbreak resolved” value in data set [5] (three human subjects, 3% (w/v) tranexamic acid topically several times a day from beginning of outbreak, usual duration about 2 weeks) was not above 48 h. Moreover, the “maximum concentration that could be used without cytotoxicity” value in data set [6] is 2 % (w/v).

The record behind these values is patent US11413279B2, “Methods and compositions for the antiviral use of synthetic lysine analogs and mimetics” (priority 2017, dated 2022).
